The text below walks through data of US10538532B2, “Hepatitis B antiviral agents” (ENANTA PHARMACEUTICALS, INC., priority 2016, dated 2020).

One data set deals with HBV. As to the kind of experiment: HepAD38 antiviral assay: reduction of viral product accumulation (virion DNA by qPCR, HBsAg or HBeAg by ELISA). Format: cell-based, hepatitis B virus. Particulars: HepAD38 cells, five days after compound addition, concentration reducing viral product accumulation by 50% relative to no drug controls, read-out: HepAD38 EC50. The method in brief: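 HepAD38 cells were washed free of tetracycline, plated at 35,000 cells/well and given compounds diluted 1:200 from DMSO. After 5 days, or 8 days with media and compound refreshed on d2 and d5, virion DNA was measured by qPCR and HBsAg or HBeAg by ELISA. EC50 is the concentration giving 50% reduction of viral product versus no-drug controls.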
A general note: In qPCR the cycle at which signal appears reflects the starting amount.

A short description of data set [1]: Compound toxicity, ATPLite total ATP levels. The conditions noted are these: human, HepAD38 cells, three days after compound addition, concentration reducing total ATP levels by 50% relative to no drug controls. Format: cell-based. The protocol:
Methods: HepAD38 cells are maintained as previously reported (Ladner et al, Antimicrob. Agents Chemother. 1997, […], 1715). Briefly, cells are passaged upon attaining confluency in DMEM/F12 media in the presence of 10% FBS, Penn/Strep, 250 μg/mL G418, and 1 ug/ml tetracycline. Novel compounds are screened by first washing cells three times with PBS to remove tetracycline, and plating in 96 well plates at 35,000 cells/well. Compounds dissolved in DMSO are then diluted 1:200 into wells containing cells. Five days after compound addition, material is harvested for analysis. For an extended 8 day analysis, cells are plated and treated as described above, but media and compound are refreshed on d2 and d5 post initial treatment.
Compound toxicity is evaluated by seeding cells at 15,000 cells/well and treating with compound as described above.

Where [2] appears, read: Hepatitis B virus, HePAD38, 120 h.

pEC50: −log10 of the molar value. Read-outs that look alike come from different tables or passages of the source.

As for `O=C(Nc1cc(F)c(F)c(F)c1)c1ccc(Cl)c(S(=O)(=O)[C@H]2CC3CCC(C2)[C@]3(O)CNS(=O)(=O)c2ccccn2)c1` [Example 296], in the data set on HBV (setting [2]), the pEC50 (in general, the negative decadic logarithm of the EC50, by convention in mol/L) is greater than 7.00. The half-maximal cytotoxic concentration (CC50) (in general, the concentration at which the toxic effect on the cells reaches its halfway point) at 3 days in data set [1] (numeric bounds) was greater than 6.25 µM.
Consider `NC1CC2CC[C@@H](C1)[C@H]2S(=O)(=O)c1cc(C(=O)Nc2cc(F)c(F)c(F)c2)ccc1Cl` (stereo partly drawn) [Example 298], for which the negative-log EC50 (pEC50) with HBV (setting [2]) was 6.40 to 7.00. This compound had a CC50 at 3 days in data set [1] (class symbols) of 10 to 25 µM.
Take `O=C(Nc1cc(F)c(F)c(F)c1)c1ccc(Cl)c(S(=O)(=O)C2CC[C@H](O)[C@@H](O)CC2)c1` [Example 84]: the negative-log EC50 (pEC50) with HBV (setting [2]) was greater than 7.00. This compound displayed a CC50 at 3 days in data set [1] (class symbols) greater than 25 µM.
Regarding `CS(=O)(=O)NC[C@]1(O)C2CCC1C[C@@H](S(=O)(=O)c1cc(C(=O)Nc3cc(F)c(F)c(F)c3)ccc1Cl)C2` [Example 259], the negative-log EC50 (pEC50) with HBV (setting [2]) was greater than 7.00. In addition, in data set [1] (numeric bounds), the 50% cytotoxic concentration (CC50) at 3 days was greater than 12.5 µM.
In the case of `C[C@]1(O)CC2CC[C@@H](C1)[C@H]2S(=O)(=O)c1cc(C(=O)Nc2cc(F)c(F)c(F)c2)ccc1Cl` [Example 282], in the data set with HBV (setting [2]), the pEC50 was greater than 7.00. In data set [1] (class symbols), this compound displayed a half-maximal cytotoxic concentration (CC50) at 3 days greater than 25 µM.
With `[N-]=[N+]=NC[C@]1(O)CC2CC[C@@H](C1)[C@H]2S(=O)(=O)c1cc(C(=O)Nc2cc(F)c(F)c(F)c2)ccc1Cl` [Example 286], the pEC50 with HBV (setting [2]) was greater than 7.00. Further, in data set [1] (class symbols), the half-maximal cytotoxic concentration (CC50) at 3 days lay within 10 to 25 µM.
As to `[N-]=[N+]=NC[C@@H]1CC2CC[C@@H](C1)[C@H]2S(=O)(=O)c1cc(C(=O)Nc2cc(F)c(F)c(F)c2)ccc1Cl` [Example 304], the pEC50 with HBV (setting [2]) was 6.40 to 7.00. Further, in data set [1] (numeric bounds), the CC50 at 3 days is greater than 6.25 µM.
Turning to `C=CCOC(=O)OC[C@]1(O)CC2CC[C@@H](C1)[C@H]2S(=O)(=O)c1cc(C(=O)Nc2cc(F)c(F)c(F)c2)ccc1Cl` [Example 290], the negative-log EC50 (pEC50) in the data set with HBV (setting [2]) was greater than 7.00. In data set [1] (class symbols), this compound displayed a CC50 at 3 days greater than 25 µM.
Turning to `O=C(Nc1cc(F)c(F)c(F)c1)c1ccc(Cl)c(S(=O)(=O)[C@H]2CC3CCC(C2)[C@]3(O)CNS(=O)(=O)c2cccnc2)c1` [Example 295], the pEC50 in the data set with HBV (setting [2]) is greater than 7.00. The compound further yielded a CC50 at 3 days in data set [1] (numeric bounds) greater than 12.5 µM.
Take `COC(=O)N[C@H]1C2CCC1C[C@@H](S(=O)(=O)c1cc(C(=O)Nc3cc(F)c(F)c(F)c3)ccc1Cl)C2` [Example 309]: the negative-log EC50 (pEC50) with HBV (setting [2]) was greater than 7.00. This compound came in with a half-maximal cytotoxic concentration (CC50) at 3 days in data set [1] (class symbols) greater than 25 µM.
On the same counts, the results for `O=C(Nc1cc(F)c(F)c(F)c1)c1ccc(Cl)c(S(=O)(=O)[C@H]2CC[C@H](O)CC2)c1` [Example 3] are 6.40 to 7.00 and greater than 25 µM.
Turning to `CCS(=O)(=O)NC[C@@]1(O)CC2CC[C@@H](C1)[C@H]2S(=O)(=O)c1cc(C(=O)Nc2cc(F)c(F)c(F)c2)ccc1Cl` [Example 278], in the data set with HBV (setting [2]), the negative-log EC50 (pEC50) is 6.40 to 7.00. The same compound gave a CC50 at 3 days in data set [1] (class symbols) greater than 25 µM.
On the same counts, the results for `O=C1NC[C@]2(O1)C1CCC2C[C@@H](S(=O)(=O)c2cc(C(=O)Nc3cc(F)c(F)c(F)c3)ccc2Cl)C1` [Example 260] are greater than 7.00 and greater than 25 µM.
As to `O=C(Nc1cc(F)c(F)c(F)c1)c1ccc(Cl)c(S(=O)(=O)[C@H]2CC3CCC(C2)[C@]3(O)CO)c1` [Example 324], the pEC50 with HBV is greater than 7.00. Further, the CC50 at 3 days in data set [1] (numeric bounds) was greater than 12.5 µM.
Take `CS(=O)(=O)NC[C@]1(O)C2CCC1C[C@H](S(=O)(=O)c1cc(C(=O)Nc3cc(F)c(F)c(F)c3)ccc1Cl)C2` [Example 273]: the pEC50 in the data set on HBV (setting [2]) was greater than 7.00. The CC50 at 3 days in data set [1] (numeric bounds) was greater than 12.5 µM.
With `O=C(Nc1cc(F)c(F)c(F)c1)c1ccc(Cl)c(S(=O)(=O)[C@H]2C3CC[C@H]2C[C@](O)(c2ncc[nH]2)C3)c1` [Example 281], the pEC50 in the data set on HBV (setting [2]) was greater than 7.00. Further, the half-maximal cytotoxic concentration (CC50) at 3 days in data set [1] (class symbols) is greater than 25 µM.
For `O=C(Nc1cc(F)c(F)c(F)c1)c1ccc(Cl)c(S(=O)(=O)[C@H]2CC3CCC(C2)[C@]3(O)Cn2cccn2)c1` [Example 256], the pEC50 with HBV (setting [2]) was greater than 7.00. In data set [1] (numeric bounds), this compound had a half-maximal cytotoxic concentration (CC50) at 3 days greater than 12.5 µM.
Consider `C[C@]1(O)C2CCC1C[C@H](S(=O)(=O)c1cc(C(=O)Nc3cc(F)c(F)c(F)c3)ccc1Cl)C2` [Example 253], for which the pEC50 with HBV was greater than 7.00. In addition, the 50% cytotoxic concentration (CC50) at 3 days in data set [1] (class symbols) was greater than 25 µM.
